ChEMBL document CHEMBL3885881, “DrugMatrix”

Species: Rattus norvegicus
Test: DrugMatrix - Regimen: Daily Repeat
Type: toxicity, organism-based, Sprague-Dawley
Design: regimen Daily Repeat, gender Male, age 6-8 weeks
Settings: in vivo, po, route oral GAVAGE, vehicle .5 % CMC; for ABSOLUTE BASOPHIL / ABSOLUTE EOSINOPHIL / ABSOLUTE LYMPHOCYTE / ABSOLUTE SEGMENTED NEUTROPHIL / BASOPHIL / EOSINOPHIL / ERYTHROCYTE COUNT / HEMATOCRIT / LYMPHOCYTE / MEAN CORPUSCULAR HEMOGLOBIN / MEAN CORPUSCULAR HEMOGLOBIN CONCENTRATION / MEAN CORPUSCULAR VOLUME / MONOCYTE / NEUTROPHIL / NUCLEATED RED BLOOD CELLS / PLATELET COUNT / LEUKOCYTE COUNT: tissue Blood; for ALANINE AMINOTRANSFERASE / ALBUMIN / ALKALINE PHOSPHATASE / ASPARTATE AMINOTRANSFERASE / BLOOD UREA NITROGEN / CARBON DIOXIDE / CHLORIDE / CHOLESTEROL / CREATINE PHOSPHOKINASE / CREATININE / GLUCOSE / LACTATE DEHYDROGENASE / PHOSPHORUS / POTASSIUM / SODIUM / TOTAL BILIRUBIN / TOTAL PROTEIN / URIC ACID: tissue Plasma
[1] = 0 mg/kg, 72 h, dose level Control, time 3 day
[2] = 0 mg/kg, 120 h, dose level Control, time 5 day
[3] = 3 mg/kg, 72 h, dose level Low, time 3 day
[4] = 3 mg/kg, 120 h, dose level Low, time 5 day

CCN(CC)CCOc1ccc(/C(=C(/Cl)c2ccccc2)c2ccccc2)cc1 [ENCLOMIPHENE]
ABSOLUTE BASOPHIL [1]: 0 CELLS/uL | ABSOLUTE EOSINOPHIL [1]: 222.83 CELLS/uL | ABSOLUTE LYMPHOCYTE [1]: 14453 CELLS/uL | ABSOLUTE SEGMENTED NEUTROPHIL [1]: 1490.83 CELLS/uL | BASOPHIL [1]: 0% | EOSINOPHIL [1]: 1.33% | ERYTHROCYTE COUNT [1]: 5.76 x10E6/uL | HEMATOCRIT [1]: 36.52% | LYMPHOCYTE [1]: 89.33% | MEAN CORPUSCULAR HEMOGLOBIN [1]: 23.37 pg | MEAN CORPUSCULAR HEMOGLOBIN CONCENTRATION [1]: 36.85 G/DL | MEAN CORPUSCULAR VOLUME [1]: 63.47 fL | MONOCYTE [1]: 0% | NEUTROPHIL [1]: 9.33% | NUCLEATED RED BLOOD CELLS [1]: 0 /100WBC | PLATELET COUNT [1]: 1239.5 x10E3/uL | ALANINE AMINOTRANSFERASE [1]: 43.83 u/L | ALBUMIN [1]: 4.27 G/DL | ALKALINE PHOSPHATASE [1]: 398.83 u/L | ASPARTATE AMINOTRANSFERASE [1]: 81.17 u/L | BLOOD UREA NITROGEN [1]: 17.67 mg/dL | CARBON DIOXIDE [1]: 27.5 mmol/L | CHLORIDE [1]: 99.17 MEQ/L | CHOLESTEROL [1]: 74 mg/dL | CREATINE PHOSPHOKINASE [1]: 331.5 u/L | CREATININE [1]: 0.2 mg/dL | GLUCOSE [1]: 171.33 mg/dL | LACTATE DEHYDROGENASE [1]: 241.67 u/L | PHOSPHORUS [1]: 12.25 mg/dL | POTASSIUM [1]: 6.33 MEQ/L | SODIUM [1]: 141.28 MEQ/L | TOTAL BILIRUBIN [1]: 0.15 mg/dL | TOTAL PROTEIN [1]: 5.98 G/DL | URIC ACID [1]: 1.63 mg/dL | ABSOLUTE BASOPHIL [2]: 0 CELLS/uL | ABSOLUTE EOSINOPHIL [2]: 148.67 CELLS/uL | ABSOLUTE LYMPHOCYTE [2]: 16020.5 CELLS/uL | ABSOLUTE SEGMENTED NEUTROPHIL [2]: 1468.33 CELLS/uL | BASOPHIL [2]: 0% | EOSINOPHIL [2]: 1% | ERYTHROCYTE COUNT [2]: 5.78 x10E6/uL | HEMATOCRIT [2]: 35.77% | LEUKOCYTE COUNT [2]: 17.67 x10E3/uL | LYMPHOCYTE [2]: 90.5% | MEAN CORPUSCULAR HEMOGLOBIN [2]: 23.22 pg | MEAN CORPUSCULAR HEMOGLOBIN CONCENTRATION [2]: 37.47 G/DL | MEAN CORPUSCULAR VOLUME [2]: 61.92 fL | MONOCYTE [2]: 0.17% | NEUTROPHIL [2]: 8.33% | NUCLEATED RED BLOOD CELLS [2]: 0.17 /100WBC | PLATELET COUNT [2]: 1255.5 x10E3/uL | ALANINE AMINOTRANSFERASE [2]: 46.5 u/L | ALBUMIN [2]: 4.38 G/DL | ALKALINE PHOSPHATASE [2]: 336 u/L | ASPARTATE AMINOTRANSFERASE [2]: 76.5 u/L | BLOOD UREA NITROGEN [2]: 20 mg/dL | CARBON DIOXIDE [2]: 27.5 mmol/L | CHLORIDE [2]: 101 MEQ/L | CHOLESTEROL [2]: 71.33 mg/dL | CREATINE PHOSPHOKINASE [2]: 231.83 u/L | CREATININE [2]: 0.37 mg/dL | GLUCOSE [2]: 168.83 mg/dL | LACTATE DEHYDROGENASE [2]: 174 u/L | PHOSPHORUS [2]: 11.48 mg/dL | POTASSIUM [2]: 6.82 MEQ/L | SODIUM [2]: 143.8 MEQ/L | TOTAL BILIRUBIN [2]: 0.2 mg/dL | TOTAL PROTEIN [2]: 5.98 G/DL | URIC ACID [2]: 1.83 mg/dL | ABSOLUTE BASOPHIL [3]: 0 CELLS/uL | ABSOLUTE EOSINOPHIL [3]: 54.33 CELLS/uL | ABSOLUTE LYMPHOCYTE [3]: 13020.67 CELLS/uL | ABSOLUTE SEGMENTED NEUTROPHIL [3]: 996.33 CELLS/uL | BASOPHIL [3]: 0% | EOSINOPHIL [3]: 0.33% | ERYTHROCYTE COUNT [3]: 5.87 x10E6/uL | HEMATOCRIT [3]: 35.93% | LEUKOCYTE COUNT [3]: 14.23 x10E3/uL | LYMPHOCYTE [3]: 91.67% | MEAN CORPUSCULAR HEMOGLOBIN [3]: 24.23 pg | MEAN CORPUSCULAR HEMOGLOBIN CONCENTRATION [3]: 39.57 G/DL | MEAN CORPUSCULAR VOLUME [3]: 61.2 fL | MONOCYTE [3]: 1% | NEUTROPHIL [3]: 7% | NUCLEATED RED BLOOD CELLS [3]: 0 /100WBC | PLATELET COUNT [3]: 1129 x10E3/uL | ALANINE AMINOTRANSFERASE [3]: 57.33 u/L | ALBUMIN [3]: 4.5 G/DL | ALKALINE PHOSPHATASE [3]: 614.33 u/L | ASPARTATE AMINOTRANSFERASE [3]: 88 u/L | BLOOD UREA NITROGEN [3]: 13.67 mg/dL | CARBON DIOXIDE [3]: 25.33 mmol/L | CHLORIDE [3]: 105.67 MEQ/L | CHOLESTEROL [3]: 37 mg/dL | CREATINE PHOSPHOKINASE [3]: 178 u/L | CREATININE [3]: 0.16 mg/dL | GLUCOSE [3]: 148 mg/dL | LACTATE DEHYDROGENASE [3]: 196.67 u/L | PHOSPHORUS [3]: 13.37 mg/dL | POTASSIUM [3]: 6.75 MEQ/L | SODIUM [3]: 151.6 MEQ/L | TOTAL BILIRUBIN [3]: 0.2 mg/dL | TOTAL PROTEIN [3]: 6.17 G/DL | URIC ACID [3]: 1.43 mg/dL | ABSOLUTE BASOPHIL [4]: 0 CELLS/uL | ABSOLUTE EOSINOPHIL [4]: 38.33 CELLS/uL | ABSOLUTE LYMPHOCYTE [4]: 13151.33 CELLS/uL | ABSOLUTE SEGMENTED NEUTROPHIL [4]: 736.67 CELLS/uL | BASOPHIL [4]: 0% | EOSINOPHIL [4]: 0.33% | ERYTHROCYTE COUNT [4]: 6.2 x10E6/uL | HEMATOCRIT [4]: 39.87% | LEUKOCYTE COUNT [4]: 14.1 x10E3/uL | LYMPHOCYTE [4]: 93.33% | MEAN CORPUSCULAR HEMOGLOBIN [4]: 24.13 pg | MEAN CORPUSCULAR HEMOGLOBIN CONCENTRATION [4]: 37.57 G/DL | MEAN CORPUSCULAR VOLUME [4]: 64.33 fL | MONOCYTE [4]: 1% | NEUTROPHIL [4]: 5.33% | NUCLEATED RED BLOOD CELLS [4]: 0 /100WBC | PLATELET COUNT [4]: 1362.67 x10E3/uL | ALANINE AMINOTRANSFERASE [4]: 51.67 u/L
